Values of other authors, collected in paper PMC11259557 (Cancer Medicine, 2024).
Read-outs that look alike come from different tables or passages of the source.

Key:
[1] = test system: multiple myeloma
[2] = parameters: method as in PMID 26337806, PMID 27196567

CC(C)C[C@H](NC(=O)[C@H](CCc1ccccc1)NC(=O)CN1CCOCC1)C(=O)N[C@@H](Cc1ccccc1)C(=O)N[C@@H](CC(C)C)C(=O)[C@@]1(C)CO1 [carfilzomib]
DCR ([1]; phase I trial): 39%

COC[C@H](NC(=O)c1cnc(C)s1)C(=O)N[C@@H](COC)C(=O)N[C@@H](Cc1ccccc1)C(=O)[C@@]1(C)CO1 [oprozomib]
patients who experience diarrhea: Nearly all patients

CC(C)C[C@H](NC(=O)CNC(=O)c1cc(Cl)ccc1Cl)B(O)O [ixazomib]
DCR ([1]; monotherapy): 50% | T max [2]: 1 to 1.5 h | half-life [2]: 140 to 150 h | incidence of decreased platelet counts: 43% | peripheral neuropathy, any grade (patients): 27% | peripheral neuropathy, grade 3 (patients): 2% | incidence of diarrhea (phase 1 study in RRMM): 38% | incidence of grade ≥3 diarrhea (phase 1 study in RRMM): 17% | incidence of peripheral neuropathy (phase 1 study in RRMM): 20% | rate of grade ≥3 AEs (phase 1 study in RRMM): 53% | incidence of diarrhea (real-world settings): 26.2% | incidence of peripheral neuropathy (real-world settings): 35% | incidence of ≥grade 3 diarrhea (real-world settings): 13.9% | incidence of ≥grade 3 peripheral neuropathy (real-world settings): 3% | participants who discontinued due to AEs (study by Kumar et al.): 12%

CC(C)C[C@H](NC(=O)[C@@H](NC(=O)c1cccc(-c2ccccc2)n1)[C@@H](C)O)B(O)O [delanzomib]
incidence of grade ≥3 diarrhea: 19% | incidence of peripheral neuropathy: 21%
